# Measurements published in patent publication US10479784B2, “Substituted pyrazin-2-amines as inhibitors of ATR kinase” (Vertex Pharmaceuticals Incorporated, priority 2008, dated 2019).
# pKi: −log10 of the molar value.
# Target: full-length ATR (Homo sapiens (Human), UniProt Q13535)
# Assay: ATR Inhibition Assay (radioactive-phosphate incorporation)
# Assay type: biochemical
# Details: read-out: ATR Ki
# In short: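 Ki(app) was derived by non-linear regression of background-corrected initial rates of 33P incorporation into an 800 μM target peptide, read by phosphocellulose filter scintillation counting. Reaction conditions: 5 nM full-length ATR, 10 μM [γ-33P]ATP, pH 7.5 Tris buffer with MgCl2 and DTT, 25 °C, 10-min preincubation, 24 h run.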
# full-length ATR, sequence (Q13535 whole entry): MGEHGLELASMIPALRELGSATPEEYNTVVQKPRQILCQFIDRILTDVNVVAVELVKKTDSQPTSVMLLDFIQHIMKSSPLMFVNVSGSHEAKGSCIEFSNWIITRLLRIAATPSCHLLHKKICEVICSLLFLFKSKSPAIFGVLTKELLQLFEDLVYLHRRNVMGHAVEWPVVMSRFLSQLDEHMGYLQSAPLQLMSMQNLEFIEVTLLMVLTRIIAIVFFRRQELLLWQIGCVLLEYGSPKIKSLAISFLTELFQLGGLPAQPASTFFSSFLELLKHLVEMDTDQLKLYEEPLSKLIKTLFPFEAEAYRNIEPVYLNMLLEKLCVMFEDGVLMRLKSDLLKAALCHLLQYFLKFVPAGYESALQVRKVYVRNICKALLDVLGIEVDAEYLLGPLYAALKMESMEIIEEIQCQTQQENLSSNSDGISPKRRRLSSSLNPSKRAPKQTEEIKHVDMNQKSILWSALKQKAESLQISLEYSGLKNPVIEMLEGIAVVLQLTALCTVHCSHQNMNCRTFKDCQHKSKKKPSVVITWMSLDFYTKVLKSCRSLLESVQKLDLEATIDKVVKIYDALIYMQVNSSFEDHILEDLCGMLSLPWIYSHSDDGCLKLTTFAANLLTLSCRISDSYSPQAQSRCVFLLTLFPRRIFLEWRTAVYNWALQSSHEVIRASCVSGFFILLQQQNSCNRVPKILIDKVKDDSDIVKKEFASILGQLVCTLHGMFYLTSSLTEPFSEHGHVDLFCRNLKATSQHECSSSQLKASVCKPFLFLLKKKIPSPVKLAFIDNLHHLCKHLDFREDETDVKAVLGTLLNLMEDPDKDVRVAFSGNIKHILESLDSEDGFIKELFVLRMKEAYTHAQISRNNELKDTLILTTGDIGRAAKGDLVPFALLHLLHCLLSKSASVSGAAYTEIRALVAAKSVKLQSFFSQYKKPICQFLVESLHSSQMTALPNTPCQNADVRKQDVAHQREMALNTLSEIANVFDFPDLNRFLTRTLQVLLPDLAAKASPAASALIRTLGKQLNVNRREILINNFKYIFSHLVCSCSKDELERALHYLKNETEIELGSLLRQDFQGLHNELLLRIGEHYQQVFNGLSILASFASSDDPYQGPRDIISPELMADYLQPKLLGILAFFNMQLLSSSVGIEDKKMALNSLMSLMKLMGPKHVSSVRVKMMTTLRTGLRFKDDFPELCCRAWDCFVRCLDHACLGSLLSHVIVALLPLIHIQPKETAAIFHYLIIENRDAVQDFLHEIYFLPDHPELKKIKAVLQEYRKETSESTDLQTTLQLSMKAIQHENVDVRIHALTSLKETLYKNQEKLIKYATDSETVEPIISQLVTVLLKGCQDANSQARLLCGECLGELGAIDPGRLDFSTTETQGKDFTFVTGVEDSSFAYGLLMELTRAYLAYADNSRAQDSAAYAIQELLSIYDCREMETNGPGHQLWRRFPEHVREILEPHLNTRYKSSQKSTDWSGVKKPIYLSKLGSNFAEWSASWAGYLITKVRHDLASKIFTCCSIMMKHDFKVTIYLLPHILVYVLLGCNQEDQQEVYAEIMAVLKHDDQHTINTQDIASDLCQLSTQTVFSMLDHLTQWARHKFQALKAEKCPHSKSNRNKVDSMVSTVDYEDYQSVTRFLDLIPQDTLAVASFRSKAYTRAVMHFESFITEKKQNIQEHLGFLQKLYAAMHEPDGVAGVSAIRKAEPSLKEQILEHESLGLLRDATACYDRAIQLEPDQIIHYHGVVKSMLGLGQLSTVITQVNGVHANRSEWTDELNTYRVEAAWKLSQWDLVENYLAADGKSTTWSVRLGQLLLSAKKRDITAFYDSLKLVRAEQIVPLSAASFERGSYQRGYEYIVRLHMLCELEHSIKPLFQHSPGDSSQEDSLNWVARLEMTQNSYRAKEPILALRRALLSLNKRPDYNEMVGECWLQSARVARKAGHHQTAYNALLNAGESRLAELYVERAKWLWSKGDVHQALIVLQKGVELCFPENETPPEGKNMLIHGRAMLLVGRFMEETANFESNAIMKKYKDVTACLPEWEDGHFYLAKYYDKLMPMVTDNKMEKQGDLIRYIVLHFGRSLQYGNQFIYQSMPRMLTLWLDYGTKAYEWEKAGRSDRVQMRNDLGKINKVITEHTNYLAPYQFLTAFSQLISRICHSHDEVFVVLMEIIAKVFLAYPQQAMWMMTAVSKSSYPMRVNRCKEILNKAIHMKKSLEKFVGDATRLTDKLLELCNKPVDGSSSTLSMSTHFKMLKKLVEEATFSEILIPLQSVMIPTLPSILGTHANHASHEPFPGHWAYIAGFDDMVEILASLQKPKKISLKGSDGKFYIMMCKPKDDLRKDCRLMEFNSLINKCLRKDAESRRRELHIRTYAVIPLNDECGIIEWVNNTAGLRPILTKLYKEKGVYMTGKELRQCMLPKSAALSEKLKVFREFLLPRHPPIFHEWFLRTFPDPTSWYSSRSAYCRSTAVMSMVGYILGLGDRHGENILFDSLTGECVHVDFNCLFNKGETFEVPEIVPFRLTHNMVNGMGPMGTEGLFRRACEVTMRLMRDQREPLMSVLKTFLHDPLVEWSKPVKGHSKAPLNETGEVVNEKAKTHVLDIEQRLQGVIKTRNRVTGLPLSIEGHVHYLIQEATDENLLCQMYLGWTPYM
row,SMILES,pKi
1,"CNCc1ccc(-c2nnc(-c3nc(-c4ccc(S(=O)(=O)CCN(C)C)cc4)cnc3N)o2)cc1 [IA-289, 5-[4-(2-dimethylaminoethylsulfonyl)phenyl]-3-[5-[4-(methylaminomethyl)phenyl]-1,3,4-oxadiazol-2-yl]pyrazin-2-amine]",≥ 8.00
2,"CNCc1ccc(-c2nnc(-c3nc(-c4ccc(S(=O)(=O)C(C)C)cc4F)cnc3N)o2)cc1 [IA-292, 5-(2-fluoro-4-isopropylsulfonyl-phenyl)-3-[5-[4-(methylaminomethyl)phenyl]-1,3,4-oxadiazol-2-yl]pyrazin-2-amine]",≥ 8.00
3,"CNCc1ccc(-c2nnc(-c3nc(-c4ccc(S(=O)(=O)C(C)C)cc4C)cnc3N)o2)cc1 [IA-293, 5-(4-isopropylsulfonyl-2-methyl-phenyl)-3-[5-[4-(methylaminomethyl)phenyl]-1,3,4-oxadiazol-2-yl]pyrazin-2-amine]",≥ 8.00
4,"CNCc1ccc(-c2nnc(-c3nc(-c4ccc(S(=O)(=O)C(C)C)c(C#N)c4)cnc3N)o2)cc1 [IA-295, 5-[5-amino-6-[5-[4-(methylaminomethyl)phenyl]-1,3,4-oxadiazol-2-yl]pyrazin-2-yl]-2-isopropylsulfonyl-benzonitrile]",≥ 8.00
5,"CNCc1ccc(-c2nnc(-c3nc(-c4ccc(S(=O)(=O)N(C)C)cc4)cnc3N)o2)cc1 [IA-296, 4-[5-amino-6-[5-[4-(methylaminomethyl)phenyl]-1,3,4-oxadiazol-2-yl]pyrazin-2-yl]-N,N-dimethyl-benzenesulfonamide]",≥ 8.00
6,"CNCc1ccc(-c2nnc(-c3nc(-c4ccc(S(=O)(=O)N5CCC5)cc4)cnc3N)o2)cc1 [IA-297, 5-[4-(azetidin-1-ylsulfonyl)phenyl]-3-[5-[4-(methylaminomethyl)phenyl]-1,3,4-oxadiazol-2-yl]pyrazin-2-amine]",≥ 8.00
7,"CNCc1ccc(-c2nnc(-c3nc(-c4ccc(S(=O)(=O)C(C)C)cn4)cnc3N)o2)cc1 [IA-300, 5-(5-isopropylsulfonyl-2-pyridyl)-3-[5-[4-(methylaminomethyl)phenyl]-1,3,4-oxadiazol-2-yl]pyrazin-2-amine]",≥ 8.00
8,"CNCc1ccc(-c2nnc(-c3nc(-c4ccc(S(=O)(=O)CCCO)cc4)cnc3N)o2)cc1 [IA-301, 3-[4-[5-amino-6-[5-[4-(methylaminomethyl)phenyl]-1,3,4-oxadiazol-2-yl]pyrazin-2-yl]phenyl]sulfonylpropan-1-ol]",≥ 8.00
9,"CNCc1ccc(-c2nnc(-c3nc(-c4ccc(S(=O)(=O)C5CCOC5)cc4)cnc3N)o2)cc1 (stereo not drawn) [IA-302, 3-[5-[4-(methylaminomethyl)phenyl]-1,3,4-oxadiazol-2-yl]-5-(4-tetrahydrofuran-3-ylsulfonylphenyl)pyrazin-2-amine]",≥ 8.00
10,"CNCc1ccc(-c2nnc(-c3nc(-c4ccc(S(=O)(=O)C(C)C)nc4)cnc3N)o2)cc1 [IA-303, 5-(6-isopropylsulfonyl-3-pyridyl)-3-[5-[4-(methylaminomethyl)phenyl]-1,3,4-oxadiazol-2-yl]pyrazin-2-amine]",≥ 8.00
11,"CNCc1ccc(-c2nnc(-c3nc(-c4ccc(S(=O)(=O)NCCO)cc4)cnc3N)o2)cc1 [IA-304, 4-[5-amino-6-[5-[4-(methylaminomethyl)phenyl]-1,3,4-oxadiazol-2-yl]pyrazin-2-yl]-N-(2-hydroxyethyl)benzenesulfonamide]",≥ 8.00
12,"CNCc1ccc(-c2nnc(-c3nc(-c4ccc(S(=O)(=O)C(C)C)c(Cl)c4)cnc3N)o2)cc1 [IA-305, 5-(3-chloro-4-isopropylsulfonyl-phenyl)-3-[5-[4-(methylaminomethyl)phenyl]-1,3,4-oxadiazol-2-yl]pyrazin-2-amine]",≥ 8.00
13,"CNCc1ccc(-c2nnc(-c3nc(-c4ccc(S(=O)(=O)C(C)C)cc4)cnc3N)o2)c(Cl)c1 [IA-306, 3-[5-[2-chloro-4-(methylaminomethyl)phenyl]-1,3,4-oxadiazol-2-yl]-5-(4-isopropylsulfonylphenyl)pyrazin-2-amine]",≥ 8.00
14,"CCS(=O)(=O)c1ccc(-c2cnc(N)c(-c3nnc(-c4ccc(CNC)cc4)o3)n2)cc1 [IA-307, 5-(4-(ethylsulfonyl)phenyl)-3-(5-(4-((methylamino)methyl)phenyl)-1,3,4-oxadiazol-2-yl)pyrazin-2-amine]",≥ 8.00
15,"CNCc1ccc(-c2nnc(-c3nc(-c4ccc(S(=O)(=O)C5COC5)cc4)cnc3N)o2)cc1 [IA-308, 3-[5-[4-(methylaminomethyl)phenyl]-1,3,4-oxadiazol-2-yl]-5-[4-(oxetan-3-ylsulfonyl)phenyl]pyrazin-2-amine]",≥ 8.00
16,"CNCc1ccc(-c2nnc(-c3nc(-c4ccc(S(=O)(=O)C(C)C)cc4)cnc3N)o2)cc1Cl [IA-309, 3-[5-[3-chloro-4-(methylaminomethyl)phenyl]-1,3,4-oxadiazol-2-yl]-5-(4-isopropylsulfonylphenyl)pyrazin-2-amine]",≥ 8.00
17,"CCCS(=O)(=O)c1ccc(-c2cnc(N)c(-c3nnc(-c4ccc(CNC)cc4)o3)n2)cc1 [IA-310, 3-[5-[4-(methylaminomethyl)phenyl]-1,3,4-oxadiazol-2-yl]-5-(4-propylsulfonylphenyl)pyrazin-2-amine]",≥ 8.00

row,SMILES,pKi
1,"CC(C)S(=O)(=O)c1ccc(-c2cnc(N)c(-c3nnc(-c4ccc(C(C)(C)N)cc4)o3)n2)cc1 [IA-311, 3-[5-[4-(1-amino-1-methyl-ethyl)phenyl]-1,3,4-oxadiazol-2-yl]-5-(4-isopropylsulfonylphenyl)pyrazin-2-amine]",≥ 8.00
2,"CNCc1ccc(-c2nnc(-c3nc(-c4ccc(S(=O)(=O)C(C)C)c(C)c4)cnc3N)o2)cc1 [IA-312, 5-(4-isopropylsulfonyl-3-methyl-phenyl)-3-[5-[4-(methylaminomethyl)phenyl]-1,3,4-oxadiazol-2-yl]pyrazin-2-amine]",≥ 8.00
3,"CCC(C)S(=O)(=O)c1ccc(-c2cnc(N)c(-c3nnc(-c4ccc(CNC)cc4)o3)n2)cc1 (stereo not drawn) [IA-313, 3-[5-[4-(methylaminomethyl)phenyl]-1,3,4-oxadiazol-2-yl]-5-(4-sec-butylsulfonylphenyl)pyrazin-2-amine]",≥ 8.00
4,"CNCc1ccc(-c2nnc(-c3nc(-c4ccc(S(=O)(=O)C(C)C)c(F)c4)cnc3N)o2)cc1 [IA-314, 5-(3-fluoro-4-isopropylsulfonyl-phenyl)-3-[5-[4-(methylaminomethyl)phenyl]-1,3,4-oxadiazol-2-yl]pyrazin-2-amine]",≥ 8.00
5,"CNCc1ccc(-c2nnc(-c3nc(-c4ccc(S(=O)(=O)C(C)C)cc4Cl)cnc3N)o2)cc1 [IA-316, 5-(2-chloro-4-isopropylsulfonyl-phenyl)-3-[5-[4-(methylaminomethyl)phenyl]-1,3,4-oxadiazol-2-yl]pyrazin-2-amine]",≥ 8.00
6,"CC(C)S(=O)(=O)c1ccc(-c2cnc(N)c(-c3nnc(NC4CCNCC4)o3)n2)cc1 [IA-318, 5-[3-amino-6-(4-isopropylsulfonylphenyl)pyrazin-2-yl]-N-(4-piperidyl)-1,3,4-oxadiazol-2-amine]",5.30 to 7.00
7,"CC(C)S(=O)(=O)c1ccc(-c2cnc(N)c(-c3nnc(-c4ccc(CNC5COC5)cc4F)o3)n2)cc1 [IA-319, 3-[5-[2-fluoro-4-[(oxetan-3-ylamino)methyl]phenyl]-1,3,4-oxadiazol-2-yl]-5-(4-isopropylsulfonylphenyl)pyrazin-2-amine]",≥ 8.00
8,"CNCc1ccc(-c2nnc(-c3nc(-c4ccc(S(=O)(=O)C(C)C)cc4)cnc3N)o2)cc1O [IA-320, 5-[5-[3-amino-6-(4-isopropylsulfonylphenyl)pyrazin-2-yl]-1,3,4-oxadiazol-2-yl]-2-(methylaminomethyl)phenol]",≥ 8.00
9,"CNCc1ccc(-c2nnc(-c3nc(-c4ccc(S(=O)(=O)C(C)C)c(F)c4)cnc3N)o2)c(F)c1 [IA-321, 5-(3-fluoro-4-isopropylsulfonyl-phenyl)-3-[5-[2-fluoro-4-(methylaminomethyl)phenyl]-1,3,4-oxadiazol-2-yl]pyrazin-2-amine]",≥ 8.00
10,"CNCc1ccc(-c2nnc(-c3nc(-c4ccc(S(=O)(=O)C(C)C)cc4C(F)F)cnc3N)o2)cc1 [IA-322, 5-[2-(difluoromethyl)-4-isopropylsulfonyl-phenyl]-3-[5-[4-(methylaminomethyl)phenyl]-1,3,4-oxadiazol-2-yl]pyrazin-2-amine]",≥ 8.00
11,"CNCc1ccc(-c2nnc(-c3nc(-c4ccc(S(=O)(=O)C5CCOCC5)cc4)cnc3N)o2)cc1 [IA-323, 3-[5-[4-(methylaminomethyl)phenyl]-1,3,4-oxadiazol-2-yl]-5-(4-tetrahydropyran-4-ylsulfonylphenyl)pyrazin-2-amine]",≥ 8.00
12,"CNCc1ccc(-c2nnc(-c3nc(-c4ccc(S(=O)(=O)C(C)CN(C)C)cc4)cnc3N)o2)cc1 (stereo not drawn) [IA-324, 5-[4-[2-(dimethylamino)-1-methyl-ethyl]sulfonylphenyl]-3-[5-[4-(methylaminomethyl)phenyl]-1,3,4-oxadiazol-2-yl]pyrazin-2-amine]",≥ 8.00
13,"CCc1cc(-c2cnc(N)c(-c3nnc(-c4ccc(CNC)cc4)o3)n2)ccc1S(=O)(=O)C(C)C [IA-326, 5-(3-ethyl-4-isopropylsulfonyl-phenyl)-3-[5-[4-(methylaminomethyl)phenyl]-1,3,4-oxadiazol-2-yl]pyrazin-2-amine]",≥ 8.00
14,"Nc1ncc(-c2ccc(S(=O)(=O)C3CCOCC3)cc2)nc1-c1nnc(-c2ccccc2F)o1 [IA-327, 3-[5-(2-fluorophenyl)-1,3,4-oxadiazol-2-yl]-5-(4-tetrahydropyran-4-ylsulfonylphenyl)pyrazin-2-amine]",≥ 8.00
15,"CNCc1ccc(-c2nnc(-c3nc(-c4ccc(S(=O)(=O)C(C)CC(C)(C)O)cc4)cnc3N)o2)c(F)c1 (stereo not drawn) [IA-328, 4-[4-[5-amino-6-[5-[2-fluoro-4-(methylaminomethyl)phenyl]-1,3,4-oxadiazol-2-yl]pyrazin-2-yl]phenyl]sulfonyl-2-methyl-pentan-2-ol]",≥ 8.00
16,"CNCc1ccc(-c2nnc(-c3nc(-c4ccc(S(=O)(=O)C(C)C)c(Cl)c4)cnc3N)o2)c(F)c1 [IA-329, 5-(3-chloro-4-isopropylsulfonyl-phenyl)-3-[5-[2-fluoro-4-(methylaminomethyl)phenyl]-1,3,4-oxadiazol-2-yl]pyrazin-2-amine]",≥ 8.00
